Consider 4 sequences from patent publication US7053175B1, “Synthetic peptides useful in biological assays for detecting infections caused by group O HIV-1 viruses” (Bio-Rad Pasteur, priority 1997, dated 2006).

For the experiment, the system named is serum samples from patients infected with group O HIV-1 retroviruses. The experiment can be described thus: Immunoenzymatic test: Test No. 2 (immunoreactivity with diluted sera). It is filed as binding, human. Conditions: for Number of samples: sera of Table V; for Number of samples / ABSORBANCE (OD): solid phase peptide 2 μg/ml; for ABSORBANCE (OD): cyclized. The text has this: The serum samples from patients infected with group O HIV-1 retroviruses were obtained by the Yaounde Pasteur Centre in Cameroon and were serotyped group O according to the serological algorithm described in AIDS (1977), 11, pp. 445-453. A genotyped sample (Maryland) is obtained from the United States. These samples were previously diluted in negative human serum at the dilutions given in Table V, in order to have a sufficient volume for the different immunoreactivity tests.
The synthetic peptides used were dissolved in water at a concentration of 1 mg/ml (stock solution). For the solid phase sensitization step (“coating”), the procedure was carried out as described for Example 2.
The serum samples were diluted 1/5 with a skimmed milk solution (citrate buffer supplemented with 0.01% of phenol red, 0.25% of chloroform and 0.25% of Kathon®), deposited in the wells of plates and incubated for 30 min at 40° C.
After washing with a Tris-NaCl buffer solution pH 7.4 containing 0.1% of Tween® 20 and 0.001% of sodium merthiolate, 100 μl of a solution of conjugate consisting of horseradish peroxidase-labelled anti-human IgG and IgM goat antibodies, containing as preservative 0.01% of sodium merthiolate, in solution in a citrate buffer solution supplemented with 30% glycerol and 25% normal foetal calf serum, were added to each well of the plates and then they were incubated for 30 min at 40° C.
After washing with a Tris-NaCl buffer solution pH 7.4 containing 0.1% of Tween® 20 and 0.001% of sodium merthiolate, the colour was developed as described in Example 2.
The relative absorbance (OD) (A490-A620) read in each well is proportional to the immunoreactivity of each peptide. It indicates the ability of each peptide to react with the biological sample with which the test is carried out.
The reactivity of the peptides of the invention, peptides No. 10 (14B), No. 11 (18B), No. 12 (19B), No. 14 (21B), No. 15 (22B), No. 16 (23B) all in cyclized form, was compared with that of three homologous synthetic peptides having, as sequence, a portion of the natural sequence of the envelope (env) of a group O HIV-1 retrovirus. These peptides are two peptides derived from the VAU isolate—the peptide VAU 22 AA and the peptide VAU 35 AA—and the peptide MVP 5180 (designated “MVP 5180” in Table V). The peptides VAU 22 AA and VAU 35 AA (whose structure is indicated in Example 2) and the peptide MVP 5180 comprise an immunodominant epitope of gp41.
All these peptides were used in cyclized form. The sequence of the MVP 5180 peptide is the following:
For each peptide tested, the samples were arranged into four classes (a, b, c and d) corresponding to various levels of relative absorbance read at the wavelengths A492-A620: • for a: OD<0.100, • for b: 0.100<OD<0.500, • for c: 0.500<OD<1.000, • for d: OD>1.000, thus making it possible to evaluate the degree of immunoreactivity of the peptides.

Consider “ALETLLQNQQLLNIWGCRGRLVCYTSVRWNET [PEPTIDE No. 12 (19B)]”, for which the Number of samples was found to be 0 (CLASS A (a: OD<0.100)), 11 (CLASS B (b: 0.100<OD<0.500)), 2 (CLASS C (c: 0.500<OD<1.000)) and 1 (CLASS D (d: OD>1.000)). For the same sequence, the “ABSORBANCE (OD)” value by setting is: (serum 258 OUDI at 1/100) 0.226; (serum 625 at 1/50) 0.264; (serum 3600 at 1/100) 0.249; (serum 3613 at ¼00) 0.773; (serum 3653 at 1/10) 0.247; (serum 4280 at 1/50) 0.201. In addition, the “ABSORBANCE (OD)” value reads like this: (serum 6111 at 1/100) 0.202; (serum DJOU at 1/100) 0.419; (serum DO15 at 1/100) 1.286; (serum MBASSI at 1/100) 0.747; (serum Maryland at ¼00) 0.285; (serum NGO at 1/50) 0.193. The “ABSORBANCE (OD)” value (serum NJEM at 1/100) is 0.391 and the “ABSORBANCE (OD)” value (serum WANG at 1/50) turned out to be 0.124.

On to “ALETLLQNQQLLNSWGCRGRLVCYTSVRWNET [PEPTIDE No. 11 (18B)]”, for which the Number of samples runs as follows: (CLASS A (a: OD<0.100)) 0; (CLASS B (b: 0.100<OD<0.500)) 9; (CLASS C (c: 0.500<OD<1.000)) 4; (CLASS D (d: OD>1.000)) 1. In addition, the “ABSORBANCE (OD)” value is, setting by setting: (serum 258 OUDI at 1/100) 0.373; (serum 625 at 1/50) 0.338; (serum 3600 at 1/100) 0.360; (serum 3613 at ¼00) 0.837; (serum 3653 at 1/10) 0.337; (serum 4280 at 1/50) 0.686. Further, the “ABSORBANCE (OD)” value reads like this: (serum 6111 at 1/100) 0.348; (serum DJOU at 1/100) 0.482; (serum DO15 at 1/100) 0.859; (serum MBASSI at 1/100) 1.150; (serum Maryland at ¼00) 0.370; (serum NGO at 1/50) 0.335. Also, the “ABSORBANCE (OD)” value (serum NJEM at 1/100) was 0.811 and the “ABSORBANCE (OD)” value (serum WANG at 1/50) is reported as 0.234.

With LLNSWGCKGRLVCYTS [PEPTIDE No. 10 (14B)], the Number of samples (CLASS A (a: OD<0.100)) is given as 3, the Number of samples (CLASS B (b: 0.100<OD<0.500)) is on record as 2, the Number of samples (CLASS C (c: 0.500<OD<1.000)) was found to be 5 and the Number of samples (CLASS D (d: OD>1.000)) is listed as 4. The “ABSORBANCE (OD)” value is, setting by setting: (serum 258 OUDI at 1/100) 0.587; (serum 625 at 1/50) 0.838; (serum 3600 at 1/100) 0.482; (serum 3613 at ¼00) 1.108; (serum 3653 at 1/10) 0.347; (serum 4280 at 1/50) 0.022. Also, the “ABSORBANCE (OD)” value (serum 6111 at 1/100) is 0.596; the “ABSORBANCE (OD)” value (serum DJOU at 1/100) is 1.268; the “ABSORBANCE (OD)” value (serum DO15 at 1/100) worked out at 1.613; the “ABSORBANCE (OD)” value (serum MBASSI at 1/100) is 1.217; the “ABSORBANCE (OD)” value (serum Maryland at ¼00) amounted to 0.524; the “ABSORBANCE (OD)” value (serum NGO at 1/50) is given as 0.067. The “ABSORBANCE (OD)” value is, setting by setting: (serum NJEM at 1/100) 0.032; (serum WANG at 1/50) 0.698.

On to “LNQQRLLNSWGCKGRLVCYTSV [PEPTIDE No. 14 (21B)]”, for which the Number of samples stood at 1 (CLASS A (a: OD<0.100)), 3 (CLASS B (b: 0.100<OD<0.500)), 4 (CLASS C (c: 0.500<OD<1.000)) and 6 (CLASS D (d: OD>1.000)). In addition, the “ABSORBANCE (OD)” value runs as follows: (serum 258 OUDI at 1/100) 0.764; (serum 625 at 1/50) 2.045; (serum 3600 at 1/100) 0.716; (serum 3613 at ¼00) 1.508; (serum 3653 at 1/10) 0.072; (serum 4280 at 1/50) 0.286. Besides, the “ABSORBANCE (OD)” value is on record as 0.850 (serum 6111 at 1/100); 1.998 (serum DJOU at 1/100); 3.357 (serum DO15 at 1/100); 2.134 (serum MBASSI at 1/100); 0.734 (serum Maryland at ¼00); 0.157 (serum NGO at 1/50). The “ABSORBANCE (OD)” value runs as follows: (serum NJEM at 1/100) 0.277; (serum WANG at 1/50) 2.397. In addition, the “immunoreactivity compared with the reference peptides (in words)” value (summary of Tables V and VI) is recorded as “most immunoreactive”.
